Assay results published in patent publication US20250179059A1 (The Regents of the University of California, priority 2021, published 2025).

Legend:
[1] = test system: human SKM-1 acute myeloid leukemia cells; experiment: SKM-1 antiproliferation cell-based assay (ATPlite); settings: Homo sapiens, SKM-1, 96 h, SKM-1 antiproliferation assay, 4 days, Table C2
Outline: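 Log-phase cells in RPMI 1640/15% FBS were seeded at 34722 cells/mL and exposed for 4 days to nine-concentration DMSO serial dilutions in triplicate. Viability was read as ATP luminescence (ATPlite 1step), and IC50 values came from variable-slope non-linear regression.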

[2] = target: T1, human BRD4 bromodomain II (Homo sapiens, UniProt O60885); experiment: Bromodomain binding assay (AlphaScreen), BRD4 BDII; settings: AlphaScreen assay, Table C2; read-out: BRD4 BDII IC50
T1 construct: human BRD4 bromodomain II [based on Genbank NM_058243, residues 349-460]; host or cells: E. coli
Outline: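 AlphaScreen competition: His6-BRD4 BDI (aa 44-170) or BDII (aa 349-460) vs biotin-H4(1-21) K5/K8/K12/K16Ac peptide; Ni-chelate acceptor/streptavidin donor beads. HEPES pH 7.5, NaCl, CHAPS, BSA, 1% DMSO; RT. 10-pt 3-fold titration, % peptide binding fitted → IC50.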

SMILES | GI50 [1] [nM] | IC50 [2] [nM]
C[C@@H]1CN(c2cc(-c3cc(F)cc(-c4ccc(-n5ccn(C)c5=O)c(Cl)c4)c3O)ccc2F)CCN1 [Example 677, (R)-1-(3-chloro-4″,5′-difluoro-2′-hydroxy-3″-(3-methylpiperazin-1-yl)-[1,1′:3′,1″-terphenyl]-4-yl)-3-methyl-1H-imidazol-2(3H)-one] | 0.3 to 30 | 0.01 to 1
COC(=O)CC1CN(c2cc(-c3cc(F)cc(-c4ccc(-n5ccn(C)c5=O)c(Cl)c4)c3O)ccn2)CCN1 (stereo not drawn) [Example 679, methyl 2-(4-(4-(3′-chloro-5-fluoro-2-hydroxy-4′-(3-methyl-2-oxo-2,3-dihydro-1H-imidazol-1-yl)-[1,1′-biphenyl]-3-yl)pyridin-2-yl)piperazin-2-yl)acetate] | 30 to 300 | 1 to 10
Cn1ccn(-c2ccc(-c3cc(F)cc(-c4ccnc(N5CCN[C@H](CN)C5)c4)c3O)cc2Cl)c1=O [Example 680, (R)-1-(3′-(2-(3-(aminomethyl)piperazin-l-yl)pyridin-4-yl)-3-chloro-5′-fluoro-2′-hydroxy-[1,1′-biphenyl]-4-yl)-3-methyl-1H-imidazol-2(3H)-one] | 30 to 300 | 0.01 to 1
C[C@@H]1CN(c2cc(-c3cc(F)cc(-c4ccc(-n5ccn(C)c5=O)c(Cl)c4)c3O)ccn2)C[C@@H](C)O1 [Example 684, 1-(3-chloro-3′-(2-((2R,6R)-2,6-dimethylmorpholino)pyridin-4-yl)-5′-fluoro-2′-hydroxy-[1,1′-biphenyl]-4-yl)-3-methyl-1H-imidazol-2(3H)-one] | 30 to 300 | 1 to 10
Cn1ccn(-c2ccc(-c3cc(F)cc(-c4ccnc(N5CCC(C)(N)C5)c4)c3O)cc2Cl)c1=O (stereo not drawn) [Example 686, 1-(3′-(2-(3-amino-3-methylpyrrolidin-1-yl)pyridin-4-yl)-3-chloro-5′-fluoro-2′-hydroxy-[1,1′-biphenyl]-4-yl)-3-methyl-1H-imidazol-2(3H)-one] | 0.3 to 30 | 0.01 to 1
Cn1cc(-c2cc(F)cc(-c3ccc(-n4ccn(C)c4=O)c(Cl)c3)c2O)cc(N2CCC3(CCCN3)C2)c1=O (stereo not drawn) [Example 687, 5-(3′-chloro-5-fluoro-2-hydroxy-4′-(3-methyl-2-oxo-2,3-dihydro-1H-imidazol-1-yl)-[1,1′-biphenyl]-3-yl)-1-methyl-3-(1,7-diazaspiro[4.4]nonan-7-yl)pyridin-2(1H)-one] | 0.3 to 30 | 0.01 to 1
C[C@@H]1CN(c2cc(-c3cc(F)cc(-c4ccc(-n5ccn(C)c5=O)c(Cl)c4)c3O)cc(=O)n2C)CCN1 [Example 689, (R)-4-(3′-chloro-5-fluoro-2-hydroxy-4′-(3-methyl-2-oxo-2,3-dihydro-1H-imidazol-1-yl)-[1,1′-biphenyl]-3-yl)-1-methyl-6-(3-methylpiperazin-1-yl)pyridin-2(1H)-one] | 0.3 to 30 | 0.01 to 1
Cn1ccn(-c2ccc(-c3cc(F)cc(-c4ccnc(N5CC[S+]([O-])CC5)c4)c3O)cc2Cl)c1=O [Example 690, 1-(3-chloro-5′-fluoro-2′-hydroxy-3′-(2-(1-oxidothiomorpholino)pyridin-4-yl)-[1,1′-biphenyl]-4-yl)-3-methyl-1H-imidazol-2(3H)-one] | 30 to 300 | 0.01 to 1
CO[C@H]1CCN(c2cc(-c3cc(F)cc(-c4ccc(-n5ccn(C)c5=O)c(Cl)c4)c3O)ccn2)C1 [Example 691, (S)-1-(3-chloro-5′-fluoro-2′-hydroxy-3′-(2-(3-methoxypyrrolidin-1-yl)pyridin-4-yl)-[1,1′-biphenyl]-4-yl)-3-methyl-1H-imidazol-2(3H)-one] | 30 to 300 | 0.01 to 1
Cn1ccn(-c2ccc(-c3cc(F)cc(-c4cncc(N5CCC6(CCCN6)C5)c4)c3O)cc2Cl)c1=O (stereo not drawn) [Example 692, 1-(3′-(5-(1,7-diazaspiro[4.4]nonan-7-yl)pyridin-3-yl)-3-chloro-5′-fluoro-2′-hydroxy-[1,1′-biphenyl]-4-yl)-3-methyl-1H-imidazol-2(3H)-one] | 0.3 to 30 | 0.01 to 1
Cn1ccn(-c2ccc(-c3cc(F)cc(-c4ccnc(N5CCCC6(CCCN6)C5)c4)c3O)cc2Cl)c1=O (stereo not drawn) [Example 694, 1-(3′-(2-(1,7-diazaspiro[4.5]decan-7-yl)pyridin-4-yl)-3-chloro-5′-fluoro-2′-hydroxy-[1,1′-biphenyl]-4-yl)-3-methyl-1H-imidazol-2(3H)-one] | 0.3 to 30 | 1 to 10
Cn1ccn(-c2ccc(-c3cc(F)cc(-c4ccnc(N5CCNC(CCN)C5)c4)c3O)cc2Cl)c1=O (stereo not drawn) [Example 697, 1-(3′-(2-(3-(2-aminoethyl)piperazin-1-yl)pyridin-4-yl)-3-chloro-5′-fluoro-2′-hydroxy-[1,1′-biphenyl]-4-yl)-3-methyl-1H-imidazol-2(3H)-one] | 30 to 300 | 1 to 10
Cn1ccn(-c2ccc(-c3cc(F)cc(-c4ccnc(N5CCN[C@H](CC#N)C5)c4)c3O)cc2Cl)c1=O [Example 698, (R)-2-(4-(4-(3′-chloro-5-fluoro-2-hydroxy-4′-(3-methyl-2-oxo-2,3-dihydro-1H-imidazol-1-yl)-[1,1′-biphenyl]-3-yl)pyridin-2-yl)piperazin-2-yl)acetonitrile] | 0.3 to 30 | 0.01 to 1
CC(C)N1CCN(c2cccc(-c3cc(F)cc(-c4ccc(-n5ccn(C)c5=O)c(Cl)c4)c3O)c2)CC1 [Example 699, 1-(3-chloro-5′-fluoro-2′-hydroxy-3″-(4-isopropylpiperazin-1-yl)-[1,1′:3′,1″-terphenyl]-4-yl)-3-methyl-1H-imidazol-2(3H)-one] | 0.3 to 30 | 0.01 to 1

Other lines, results leading:

GI50 [1] [nM] | IC50 [2] [nM] | SMILES
0.3 to 30 | 0.01 to 1 | COCCC1CN(c2cc(-c3cc(F)cc(-c4ccc(-n5ccn(C)c5=O)c(Cl)c4)c3O)ccn2)CCN1 (stereo not drawn) [Example 676, 1-(3-chloro-5′-fluoro-2′-hydroxy-3′-(2-(3-(2-methoxyethyl)piperazin-1-yl)pyridin-4-yl)-[1,1′-biphenyl]-4-yl)-3-methyl-1H-imidazol-2(3H)-one]
0.3 to 30 | 0.01 to 1 | CC(C)N1CCCN(c2cc(-c3cc(F)cc(-c4ccc(-n5ccn(C)c5=O)c(Cl)c4)c3O)ccn2)CC1 [Example 678, 1-(3-chloro-5′-fluoro-2′-hydroxy-3′-(2-(4-isopropyl-1,4-diazepan-1-yl)pyridin-4-yl)-[1,1′-biphenyl]-4-yl)-3-methyl-1H-imidazol-2(3H)-one]
0.3 to 30 | 0.01 to 1 | Cn1ccn(-c2ccc(-c3cc(F)cc(-c4ccnc(N5CCN(CCC6CC6)CC5)c4)c3O)cc2Cl)c1=O [Example 681, 1-(3-chloro-3′-(2-(4-(2-cyclopropylethyl)piperazin-1-yl)pyridin-4-yl)-5′-fluoro-2′-hydroxy-[1,1′-biphenyl]-4-yl)-3-methyl-1H-imidazol-2(3H)-one]
0.3 to 30 | 0.01 to 1 | CC(C)CN1CCN(c2cc(-c3cc(F)cc(-c4ccc(-n5ccn(C)c5=O)c(Cl)c4)c3O)ccn2)CC1 [Example 682, 1-(3-chloro-5′-fluoro-2′-hydroxy-3′-(2-(4-isobutylpiperazin-1-yl)pyridin-4-yl)-[1,1′-biphenyl]-4-yl)-3-methyl-1H-imidazol-2(3H)-one]
30 to 300 | 0.01 to 1 | Cn1ccn(-c2ccc(-c3cc(F)cc(-c4ccnc(N5CCC6(CCCO6)C5)c4)c3O)cc2Cl)c1=O (stereo not drawn) [Example 683, 1-(3′-(2-(1-oxa-7-azaspiro[4.4]nonan-7-yl)pyridin-4-yl)-3-chloro-5′-fluoro-2′-hydroxy-[1,1′-biphenyl]-4-yl)-3-methyl-1H-imidazol-2(3H)-one]
0.3 to 30 | 0.01 to 1 | Cn1ccn(-c2ccc(-c3cc(F)cc(-c4ccnc(N5CCC(C)(O)C5)c4)c3O)cc2Cl)c1=O (stereo not drawn) [Example 685, 1-(3-chloro-5′-fluoro-2′-hydroxy-3′-(2-(3-hydroxy-3-methylpyrrolidin-1-yl)pyridin-4-yl)-[1,1′-biphenyl]-4-yl)-3-methyl-1H-imidazol-2(3H)-one]
0.3 to 30 | 0.01 to 1 | Cn1ccn(-c2ccc(-c3cc(F)cc(-c4ccnc(N5CCCC6(CCN6)C5)c4)c3O)cc2Cl)c1=O (stereo not drawn) [Example 688, 1-(3′-(2-(1,6-diazaspiro[3.5]nonan-6-yl)pyridin-4-yl)-3-chloro-5′-fluoro-2′-hydroxy-[1,1′-biphenyl]-4-yl)-3-methyl-1H-imidazol-2(3H)-one]
0.3 to 30 | 0.01 to 1 | CN1CCC12CCCN(c1cc(-c3cc(F)cc(-c4ccc(-n5ccn(C)c5=O)c(Cl)c4)c3O)ccn1)C2 (stereo not drawn) [Example 693, 1-(3-chloro-5′-fluoro-2′-hydroxy-3′-(2-(1-methyl-1,6-diazaspiro[3.5]nonan-6-yl)pyridin-4-yl)-[1,1′-biphenyl]-4-yl)-3-methyl-1H-imidazol-2(3H)-one]
0.3 to 30 | 0.01 to 1 | CN1CCCC12CCCN(c1cc(-c3cc(F)cc(-c4ccc(-n5ccn(C)c5=O)c(Cl)c4)c3O)ccn1)C2 (stereo not drawn) [Example 695, 1-(3-chloro-5′-fluoro-2′-hydroxy-3′-(2-(1-methyl-1,7-diazaspiro[4.5]decan-7-yl)pyridin-4-yl)-[1,1′-biphenyl]-4-yl)-3-methyl-1H-imidazol-2(3H)-one]
0.3 to 30 | 0.01 to 1 | CN1CCCC12CCN(c1cc(-c3cc(F)cc(-c4ccc(-n5ccn(C)c5=O)c(Cl)c4)c3O)cn(C)c1=O)C2 (stereo not drawn) [Example 696, 5-(3′-chloro-5-fluoro-2-hydroxy-4′-(3-methyl-2-oxo-2,3-dihydro-1H-imidazol-1-yl)-[1,1′-biphenyl]-3-yl)-1-methyl-3-(1-methyl-1,7-diazaspiro[4.4]nonan-7-yl)pyridin-2(1H)-one]
